Data as given in ChEMBL document CHEMBL4138210, “Synthesis and biological evaluation of some novel diastereoselective benzothiazole β-lactam conjugates” (Eur J Med Chem, 2018).
Converted amounts (≈) assume the structure as drawn.

Experiments:
[1] = system: Staphylococcus aureus; assay: Antimicrobial activity against Staphylococcus aureus ATCC 25923 after 24 to 48 hrs by broth serial dilution method; format: functional
[2] = system: Plasmodium falciparum; assay: Antimalarial activity against Plasmodium falciparum K1; format: functional, organism-based
[3] = Hemolytic activity against human RBC at 250 uM after 1 hr relative to control; format: ADME, cell-based, Erythrocyte; settings: red blood cells (erythrocytes), read-out: Activity
[4] = Cytotoxicity against human HepG2 cells assessed as cell viability after 72 hrs by MTT assay relative to control; format: cell-based; design: concentration or dose not given beside the values; settings: read-out: Activity
[5] = system: Escherichia coli; assay: Antimicrobial activity against Escherichia coli ATCC […] after 24 to 48 hrs by broth serial dilution method; format: functional
[6] = system: Pseudomonas aeruginosa; assay: Antimicrobial activity against Pseudomonas aeruginosa PAO1 after 24 to 48 hrs by broth serial dilution method; format: functional
[7] = Plasmodium falciparum, K1, read-out: IC50

MIC [1] | IC50 [2, 7] | MIC [5] | MIC [6] | IC50 [2] | Structure (SMILES) | hemolysis at 1 h, 250 µM [3] | viability at 72 h [4]
26 µg/mL (≈ 49.7 µM) | 10.4 µM | > 200 µg/mL | > 200 µg/mL | – | COc1ccc(N2C(=O)[C@H](Oc3ccc(-c4nc5ccccc5s4)cc3)[C@@H]2c2ccc([N+](=O)[O-])cc2)cc1 | 1.11% | 71.4%
107 µg/mL (≈ 200 µM) | > 125 µM | > 200 µg/mL | > 200 µg/mL | – | CC(C)c1ccc([C@H]2[C@@H](Oc3ccc(-c4nc5ccccc5s4)cc3)C(=O)N2c2ccc(N(C)C)cc2)cc1 | 1.03% | –
205 µg/mL (≈ 400 µM) | 20.4 µM | > 200 µg/mL | > 200 µg/mL | – | COc1ccc(N2C(=O)[C@H](Oc3cccc(-c4nc5ccccc5s4)c3)[C@@H]2c2ccc(Cl)cc2)cc1 | 2.8% | –
215 µg/mL (≈ 399 µM) | 9.5 µM | > 200 µg/mL | > 200 µg/mL | – | COc1ccc(N2C(=O)[C@H](Oc3ccc(-c4nc5ccccc5s4)cc3)[C@@H]2c2ccc(OC)c(OC)c2)cc1 | 0.82% | 70.1%
199 µg/mL (≈ 400 µM) | 76.7 µM | > 200 µg/mL | > 200 µg/mL | – | Cc1ccc(N2C(=O)[C@H](Oc3cccc(-c4nc5ccccc5s4)c3)[C@@H]2c2ccc(Cl)cc2)cc1 | 1.13% | –
215 µg/mL (≈ 400 µM) | 11.8 µM | > 200 µg/mL | > 200 µg/mL | – | CCOc1ccc(N2C(=O)[C@H](Oc3ccc(-c4nc5ccccc5s4)cc3)[C@@H]2c2ccc([N+](=O)[O-])cc2)cc1 | 2.29% | 74.8%
26 µg/mL (≈ 49.7 µM) | > 125 µM | > 200 µg/mL | > 200 µg/mL | – | COc1ccc(N2C(=O)[C@H](Oc3cccc(-c4nc5ccccc5s4)c3)[C@@H]2c2ccc([N+](=O)[O-])cc2)cc1 | 1.56% | 99.5%
30 µg/mL (≈ 60.2 µM) | 16.3 µM | > 200 µg/mL | > 200 µg/mL | – | O=C1[C@H](Oc2ccc(-c3nc4ccccc4s3)cc2)[C@H](c2ccc3ccccc3c2)N1c1ccccc1 | 0.87% | 58%
205 µg/mL (≈ 400 µM) | 40.7 µM | > 200 µg/mL | > 200 µg/mL | – | COc1ccc(N2C(=O)[C@H](Oc3ccc(-c4nc5ccccc5s4)cc3)[C@@H]2c2ccc(Cl)cc2)cc1 | 0.93% | –
199 µg/mL (≈ 400 µM) | 31.1 µM | > 200 µg/mL | > 200 µg/mL | – | Cc1ccc(N2C(=O)[C@H](Oc3ccc(-c4nc5ccccc5s4)cc3)[C@@H]2c2ccc(Cl)cc2)cc1 | 1.16% | –
215 µg/mL (≈ 400 µM) | 6 µM | > 200 µg/mL | > 200 µg/mL | – | CCOc1ccc(N2C(=O)[C@H](Oc3cccc(-c4nc5ccccc5s4)c3)[C@@H]2c2ccc([N+](=O)[O-])cc2)cc1 | 1.02% | 101%
204 µg/mL (≈ 401 µM) | 60.5 µM | > 200 µg/mL | > 200 µg/mL | – | O=C1[C@H](Oc2ccc(-c3nc4ccccc4s3)cc2)[C@H](/C=C/c2ccccc2)N1c1ccc(Cl)cc1 | 2.18% | –
29 µg/mL (≈ 49.7 µM) | – | > 200 µg/mL | > 200 µg/mL | Nd(Insoluble) | COc1cc(N2C(=O)[C@H](Oc3ccc(-c4nc5ccccc5s4)cc3)[C@@H]2c2ccc([N+](=O)[O-])cc2)cc(OC)c1OC | 1.09% | 62.4%
26 µg/mL (≈ 49.7 µM) | 17.7 µM | > 200 µg/mL | > 200 µg/mL | – | COc1ccc(N2C(=O)[C@H](Oc3ccc(-c4nc5ccccc5s4)cc3)[C@@H]2c2cccc([N+](=O)[O-])c2)cc1 | 1.02% | 62.8%
231 µg/mL (≈ 399 µM) | – | > 200 µg/mL | > 200 µg/mL | Nd(Insoluble) | COc1ccc(N2C(=O)[C@H](Oc3ccc(-c4nc5ccccc5s4)cc3)[C@@H]2c2c3ccccc3cc3ccccc23)cc1 | 0.89% | –
25 µg/mL (≈ 49.3 µM) | 11.4 µM | > 200 µg/mL | > 200 µg/mL | – | Cc1ccc(N2C(=O)[C@H](Oc3ccc(-c4nc5ccccc5s4)cc3)[C@@H]2c2ccc([N+](=O)[O-])cc2)cc1 | 1.25% | 80.7%
